Results reported in patent US8790654B2, “Glycosylceramide adjuvant for saccharide antigens” (Novartis AG, priority 2004, dated 2014).
“Also recorded” adds a separate entry of the source.

Columns and labels:
Assay type in all cases: in vivo
[1] = tested on: MenC polysaccharide; assay: MenC-specific Ig titre in mice immunised with MenC, MenC+CRM or MenC-CRM conjugate with or without α-GalCer; conditions: 30 μg MenC-CRM conjugate and α-GalCer, compared with MenC-CRM conjugate and PBS; three immunisations
Protocol: C) Immunisation schedule for mice with different polysaccharides, plain, conjugated or admixed with protein carriers, with and without α-GalCer. Ten groups of wild-type C57BL/6 mice were primed on day 0 with: 1) PBS, 2) 0.1 μg with α-GalCer, 3) 10 μg MenC polysaccharide, 4) 20 μg CRM protein carrier, 5) 30 μg of a MenC-CRM conjugate, 6) 10 μg MenC polysaccharide admixed with CRM protein carrier, or the compositions in 3)-6) and α-GalCer (groups 7-10). Mice were boosted two and four weeks after they were primed with the same composition with which they were primed. Mice were bled 2, 4 and 6 weeks after initial priming (2wp1, 2wp2 and 2wp3) and the levels of antibodies against both the MenC polysaccharide and the CRM carrier were measured.
FIG. 5: α-GalCer enhances the specific antibody response against both the MenC polysaccharide and the CRM protein carrier in a MenC-CRM conjugate. Wild-type mice were primed with 10 μg MenC polysaccharide, 20 μg CRM protein carrier, 10 μg MenC polysaccharide admixed with CRM protein carrier (MenC+CRM), or 30 μg of a MenC-CRM conjugate, or the same compositions with α-GalCer. […]
FIG. 7: Antibody response is enhanced in mice immunised with α-GalCer and MenC-CRM conjugate. […] The MenC-specific titre was measured one week post the second immunisation (1wp2) and one week post third immunisation (1wp3).

[2] = tested on: S. pneumoniae polysaccharides; assay: S. pneumoniae-specific antibody titres by ELISA in mice immunised with Streptopur with or without α-GalCer
[3] = tested on: Hib; assay: Hib-specific Ig titre in mice immunised with Hib-HSA conjugate mixed with PBS, α-GalCer or MF59; conditions: 15 μg Hib-HSA conjugate mixed with α-GalCer, compared with Hib-HSA conjugate and PBS; three immunisations; 1wp2 and 1wp3
Protocol: FIG. 11: Antibody response is enhanced in mice immunised with α-GalCer and Hib-HSA conjugate. […] Each group of mice was immunised three times. The Hib-specific titre was measured 1 week post the second immunisation (1wp2) and 1 week post the third immunisation (1wp3).

[4] = tested on: MenA polysaccharide; assay: MenA-specific antibody titres in mice immunised with MenA polysaccharide or MenA-CRM conjugate with or without α-GalCer
Protocol: FIG. 6: α-GalCer enhances the immune response to a MenA-CRM conjugate. Mice were immunised with 10 μg MenA polysaccharide or MenA-CRM conjugate with or without α-GalCer. Antibodies titres against the MenA polysaccharide were measured 4, 8 and 12 days post priming. α-GalCer enhanced the immune response to the MenA polysaccharide.

[5] = tested on: S. pneumoniae-specific B cells; assay: Number of S. pneumoniae-specific B cells in spleens by Elispot; conditions: mice primed with 0.1 or 1.0 μg α-GalCer and boosted with 11.5 μg Streptopur 12 weeks later, compared with PBS prime and Streptopur boost; Elispot at 18-22 weeks

CCCCCCCCCCCCCCCCCCCCCCCCCC(=O)N[C@@H](CO[C@H]1O[C@H](CO)[C@H](O)[C@H](O)[C@H]1O)[C@H](O)[C@H](O)CCCCCCCCCCCCCC [α-GalCer, α-galactosylceramide]
MenC-specific Ig titres [1]: enhanced; also recorded: significant increase | S. pneumoniae specific IgM antibodies (geomean) by age of mice ([2]; 8 days after priming mice of different ages with 3.5 μg Streptopur and 0.1 μg α-GalCer, compared with Streptopur alone): suppresses; also recorded: suppression | S. pneumoniae-specific antibody titres in NKT-deficient mice ([2]; JA18−/−, CD1d−/− and CD1d−/+ mice primed with 3.5 μg Streptopur and 0.1 μg α-GalCer, compared with Streptopur alone, 4, 8, 12 days after priming): no significant difference | S. pneumoniae-specific antibody titers after boost ([2]; mice primed with Streptopur and 0.1 μg α-GalCer and boosted with Streptopur, compared with primed and boosted with Streptopur alone, 8 days after boosting): lower | S. pneumoniae-specific antibody titres (IgM, geomean) ([2]; wild-type C57BL/6 mice primed i.m. with Streptopur and 0.1 μg α-GalCer, compared with Streptopur alone, 4, 8, 12 days after priming): lower; also recorded: reduced | Hib-specific Ig titres [3]: enhanced; also recorded: considerably higher | MenA-specific Ig titres ([4]; MenA-CRM conjugate and α-GalCer, compared with conjugate without α-GalCer, 4, 8, 12 days post priming): enhances; also recorded: increase | Inhibitory action on the response to unconjugated MenA saccharides ([4]; unconjugated MenA polysaccharide with α-GalCer): not observed | Number of S. pneumoniae-specific B cells per 10^6 splenocytes [5]: lower numbers
